The values below are quoted from earlier work in article PMC3714282, “Pharmacometabolomics of Response to Sertraline and to Placebo in Major Depressive Disorder – Possible Role for Methoxyindole Pathway” (PLoS ONE, 2013).

The structures appear in SMILES notation.

The subject of this data set is arylalkylamine N-acetyltransferase (AANAT) mRNA. Also on record: method as in PMID 9951564. The note with it: animal studies, chronic administration; cited from earlier work.

Regarding `CNCCC(Oc1ccc(C(F)(F)F)cc1)c1ccccc1` (stereo not shown) [fluoxetine], the “brain arylalkylamine N-acetyltransferase (AANAT) mRNA” value is reported as “several-fold increase”.
